Results: PMC6768771 (Current cancer drug targets, 2019)

Columns and labels:
Assay in all cases: Cell viability assay
Assay type in all cases: cell-based
NCI-H661 cells = settings: Homo sapiens, NCI-H661, 48 h, read-out: EC50 at 48 h
A549 cells = settings: Homo sapiens, A549, 48 h, read-out: EC50 at 48 h
NCI-H1573 cells = settings: Homo sapiens, NCI-H1573, 48 h, read-out: EC50 at 48 h
NCI-H1299 cells = settings: Homo sapiens, NCI-H1299, 48 h, read-out: EC50 at 48 h
NCI-H1563 cells = settings: Homo sapiens, NCI-H1563, 48 h, read-out: EC50 at 48 h
NCI-H460 cells = settings: Homo sapiens, NCI-H460, 48 h, read-out: EC50 at 48 h

Structure (SMILES): CC(=O)O[C@@]12CO[C@@H]1C[C@H](O)[C@@]1(C)C(=O)[C@H](O)C3=C(C)[C@@H](OC(=O)[C@H](O)[C@@H](NC(=O)OC(C)(C)C)c4ccccc4)C[C@@](O)([C@@H](OC(=O)c4ccccc4)[C@H]21)C3(C)C [Docetaxel]
- EC50 (NCI-H661 cells): > 200 µM
- EC50 (A549 cells): > 200 µM
- EC50 (NCI-H1573 cells): > 200 µM
- EC50 (NCI-H1299 cells): 72 µM
- EC50 (NCI-H1563 cells): 80 µM
- EC50 (NCI-H460 cells): 56 µM

Structure (SMILES): C#Cc1cccc(Nc2ncnc3cc(OCCOC)c(OCCOC)cc23)c1 [Erlotinib]
- EC50 (NCI-H661 cells): > 200 µM
- EC50 (A549 cells): > 200 µM
- EC50 (NCI-H1573 cells): > 200 µM
- EC50 (NCI-H1299 cells): > 200 µM
- EC50 (NCI-H1563 cells): > 200 µM
- EC50 (NCI-H460 cells): > 200 µM

Structure (SMILES): CC(=O)O[C@H]1C(=O)[C@@]2(C)[C@H]([C@H](OC(=O)c3ccccc3)[C@]3(O)C[C@H](OC(=O)[C@H](O)[C@@H](NC(=O)c4ccccc4)c4ccccc4)C(C)=C1C3(C)C)[C@]1(OC(C)=O)CO[C@@H]1C[C@@H]2O [Paclitaxel]
- EC50 (NCI-H661 cells): 11 µM
- EC50 (A549 cells): > 200 µM
- EC50 (NCI-H1573 cells): > 200 µM
- EC50 (NCI-H1299 cells): 60 µM
- EC50 (NCI-H1563 cells): > 200 µM
- EC50 (NCI-H460 cells): 26 µM
